We go through ten molecules from US4845219A, “Nitrogen- and sulfur-containing lipid compounds their production and use” (Takeda Chemical Industries, Ltd., priority 1986, dated 1989).

Molecules are shown by their SMILES. Where a name gives a salt, the structure may show the parent alone.

One data set relates to tumor cells. The settings on record: compound [III], literature; cited from earlier work.
A further data set has as its system MM46 cells. Nature of the data set: Life-span prolongation of MM46-inoculated C3H/He mice (Test Example 2). The class given is in vivo. The settings on record: MM46 1×10^4 cells/mouse i.p.; for Life-Span Prolongation Ratio (T/C, %): 0.25 mg/mouse i.p. for consecutive 4 days from second day after inoculation, only mice of survival days less than 60 days, control = 100; for No. of survivors/No. of tested mice: 0.25 mg/mouse i.p. for consecutive 4 days, 60th day, control 0/5. The procedure:
C3H/He mice (a group consisting of five mice) were inoculated intraperitoneally with 1×10^4 MM46 cells per mouse, and each mouse was intraperitoneally given 0.25 mg of drug for consecutive 4 days, starting from the second day after the inoculation. Shown in Table 2 are the life-span prolongation ratio ragarding the died mice in the group treated with drug against those in the control group not treated with drug (only related to mice of survival days less than 60 days) and the number of survived mice on the 60th day after the inoculation of MM46.

The subject of the next data set is platelets. The settings on record: literature; cited from earlier work.
The conditions of data set [1]: literature; cited from earlier work.
The test system of another data set is Sarcoma 180 cells. Nature of the data set: Life-span prolongation of Sarcoma 180-inoculated ICR mice (Test Example 1). The class given is in vivo. The settings on record: Sarcoma 180 1×10^5 cells/mouse i.p.; for Life-Span Prolongation Ratio (T/C, %): 0.33 mg/mouse i.p. three times (1 hour, 1 day, 2 days after inoculation), only mice of survival days less than 60 days, control = 100; for 60th day: No. of survivors/No. of tested mice: 0.33 mg/mouse i.p. three times, control 0/5. The procedure:
ICR mice (a group consisting of five mice) were inoculated intraperitoneally with 1×10^5 Sarcoma 180 cells per mouse, and then given intraperitoneally 0.33 mg/mouse of the compound prepared in the present invention dissolved in physiological saline, three times in total, 1 hour, 1 day and 2 days after the inoculation. Also, the control compound [III] was given to mice under the same conditions. Shown in Table 1 are the life-span prolongation ratio against the control group not treated with drug (only related to mice of survival days less than 60 days) and the number of survived mice on the 60th day after the initiation of the test.

Data set [2] relates to human myelogenic leukaemia cells HL-60. Nature of the data set: Proliferation inhibiting activity against HL-60 (Test Example 3). The class given is cell-based. The settings on record: HL-60 cells, read-out: Inhibitory concentration against HL-60 (IC50, μg/ml). Here is the method: Proliferation inhibiting activity (IC50) of the compound of the present invention againsts human myelogenic leukaemia cells HL-60 was measured according to the method of R. Gallo et al [Blood, vol.

Data set [3] has as its system platelet aggregation by PAF, washed PRP. The data set is described as follows: PAF inhibiting activity in platelet aggregation (Test Example 4). The data set is classed as cell-based. The settings on record: Oryctolagus cuniculus, PAF 3×10^-7 M, rabbit washed PRP, 37° C., relative to maximum aggregation of control PRP by PAF, read-out: Inhibiting Ratio; for inhibition at 30 µM: medicine concentration 3 × 10^-5 M; for inhibition at 3 µM: medicine concentration 3 × 10^-6 M. Here is the method: Using a syringe containing 3.15% citric acid (1 part per 9 parts of blood) as a blood coagulation inhibitor, blood was taken from male rabbit. The blood was then centrifuged at 1000 rpm at room temperature for 10 minutes to obtain a platelet rich plasma (PRP). This PRP was further centrifuged at 1400 rpm for 15 minutes to obtain a platelet pellet. The pellet was suspended in Ca^++ -free Tyrode containing 0.25% gelatin to obtain washed PRP. This PRP (250 μl) was stirred at 37° C. for 2 minutes, to which was then added 25 μl of a 0.2-0.5 mM Ca^++ solution. After this mixture had been stirred for 30 seconds, a medicine to be tested was added thereto. After 2 minutes stirring, 3×10^-7 M of PAF was added to the mixture. Pellet aggregation was measured by means of a platelet aggregometer (manufactured by Rika Denki, Japan). The activity of the test samples was determined in terms of an inhibiting ratio relative to the maximum transmittance (maximum aggregation ratio) of control PRP by PAF.

Regarding `CCCCCCCCCCCCCCCCCCOCC(COP(=O)([O-])OCC[N+](C)(C)C)OC` (centres unmarked) [Compound [III], reference compound], the “anti-tumor activity” value in the data set on tumor cells is “anti-tumor activity”. Also, in the data set on MM46 cells, the “Life-Span Prolongation Ratio (T/C, %)” value came out at 155% and the “No. of survivors/No. of tested mice” value is 0/5. Moreover, in the data set with platelets, the “platelet activating / aggregating activity” value is listed as “platelet activating property”. In data set [1], the “hypotensive and other side-effect activity” value is “hypotensive activity and local stimulating activity”. Moreover, in the data set on Sarcoma 180 cells, the “Life-Span Prolongation Ratio (T/C, %)” value amounted to 162% and the “60th day: No. of survivors/No. of tested mice” value is 0/5.
Turning to `CCCCCCCCCCCCCCCCCCOCC(CS(=O)(=O)CCC[N+](C)(C)C)OC.CS(=O)(=O)[O-]` (centres unmarked) [Example 30, 3-[(2-methoxy-3-octadecyloxypropyl)sulfonyl]propyltrimethylammonium mesylate], in the data set on MM46 cells, the “Life-Span Prolongation Ratio (T/C, %)” value is given as 225% and the “No. of survivors/No. of tested mice” value is 4/5. Further, in data set [2], the IC50 came out at 1.25 µg/mL. In addition, in the data set with Sarcoma 180 cells, the “Life-Span Prolongation Ratio (T/C, %)” value stood at 350% and the “60th day: No. of survivors/No. of tested mice” value is reported as 0/5.
In the case of `CCCCCCCCCCCCCCCCCCOCC(CS(=O)(=O)CCCCCC[N+](C)(C)C)OC.CS(=O)(=O)[O-]` (centres unmarked) [Example 31, 6-[(2-methoxy-3-octadecyloxypropyl)sulfonyl]hexyltrimethylammonium mesylate], the IC50 in data set [2] was 5 µg/mL. In the data set with Sarcoma 180 cells, the “Life-Span Prolongation Ratio (T/C, %)” value was determined as 273% and the “60th day: No. of survivors/No. of tested mice” value is listed as 0/5. In addition, in data set [3], the inhibition at 30 µM is 100% and the inhibition at 3 µM stood at 100%.
As to `CCCCCCCCCCCCCCCCCCOCC(CCS(=O)(=O)CCC[N+](C)(C)C)OC.CS(=O)(=O)[O-]` (centres unmarked) [Example 36, 3-[(3-methoxy-4-octadecyloxybutyl)sulfonyl]propyltrimethylammonium mesylate], the IC50 in data set [2] came out at 2.5 µg/mL. Moreover, in the data set with Sarcoma 180 cells, the “Life-Span Prolongation Ratio (T/C, %)” value came out at 242% and the “60th day: No. of survivors/No. of tested mice” value is 1/5.
The like results for `CCCCCCCCCCCCCCCCCCOCC(CC[S+]([O-])CCC[N+](C)(C)C)OC.CS(=O)(=O)[O-]` (centres unmarked) [Example 37, 3-[(3-methoxy-4-octadecyloxybutyl)sulfinyl]propyltrimethylammonium mesylate] were, in that order, 2.5 µg/mL, 326% and 0/5.
Regarding `CCCCCCCCCCCCCCCCCCOCC(CSCCC[N+](C)(C)C)OC.CS(=O)(=O)[O-]` (centres unmarked) [Example 38, 3-[(2-methoxy-3-octadecyloxypropyl)thio]propyltrimethylammonium mesylate], in data set [2], the IC50 is 5 µg/mL.
Regarding `CCCCCCCCCCCCCCCCCCOCC(CS(=O)(=O)CCC[n+]1ccccc1)OC` (centres unmarked) [Example 45, N[3-((2-Methoxy-3-octadecyloxypropyl)sulfony)propyl]pyridinium mesylate], the IC50 in data set [2] worked out at 1.25 µg/mL. Further, in data set [3], the inhibition at 30 µM came to 100% and the inhibition at 3 µM is 82%.
With `CCCCCCCCCCCCCCCCCCNC(=O)OCC(CS(=O)(=O)CCC[n+]1ccccc1)OC` (centres unmarked) [Example 46, N-[3-((2-Methoxy-3-octadecylcarbamoyloxypropyl)sulfonyl)propyl]-pyridinium mesylate], in data set [3], the inhibition at 30 µM was determined as 100% and the inhibition at 3 µM was 100%.
With `CCCCCCCCCCCCCCCCCCOCC(CCS(=O)(=O)CCC[n+]1ccccc1)OC.CS(=O)(=O)[O-]` (centres unmarked) [Example 47, N-[3-((3-Methoxy-4-octadecyloxybutyl)sulfonyl)propyl]pyridinium mesylate], the IC50 in data set [2] came out at 1.25 µg/mL. Besides, in data set [3], the inhibition at 30 µM was determined as 100% and the inhibition at 3 µM was 73%.
The like results for `CCCCCCCCCCCCCCCCCCOCC(CCS(=O)(=O)CCC[n+]1ccsc1)OC.CS(=O)(=O)[O-]` (centres unmarked) [Example 48, N-[3-((3-Methoxy-4-octadecyloxybutyl)sulfonyl)propyl]thiazolium mesylate] were, in that order, 2.5 µg/mL, 100% and 65%.
